Like-named read-outs stand apart in the source and are kept apart here.
Experiments:
[1] = test system: Phosphorylation of ERK1/2 in AsPC-1 cells; experiment: Phospho-ERK1/2 MSD Assay; format: cell-based, human; settings: read-out: 2 h p-ERK (AsPC-1 cells), IC50
Summary of the method: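 Read-out: MSD electrochemiluminescent detection of phosphorylated ERK1/2 in whole-cell lysates, fitted to a 4-parameter logistic curve for IC50. Prior to lysis, AsPC-1 cells (25,000 per well) received a 2 h compound dose-response at 37 °C.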

[2] = molecular target: GDP-bound KRAS protein (aa 1-169), containing both G12D and C118A amino acid substitutions (Homo sapiens (Human), UniProt P01116, C118A/G12D); experiment: KRAS G12D Coupled Nucleotide Exchange Assay; format: biochemical; settings: read-out: KRAS G12D Coupled Exchange IC50
[3] = molecular target: His-tagged KRAS G12D protein (Homo sapiens (Human), UniProt P01116, G12D); experiment: KRAS G12D TR-FRET Assay; format: binding; settings: read-out: KRAS G12D Binding IC50
Summary of the method: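 His-tagged KRAS G12D (diluted to 20 nM in pH 7.4 HEPES buffer with 10 mM MgCl2 and 10 μM GDP) was preincubated with titrated compound for 30 min at room temperature. Biotinylated KRPep-2d peptide (diluted to 20 nM) was then added for 1 h, and displacement was monitored by TR-FRET.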

AsPC-1 cells = experiment: AsPC-1 CTG Assay (CellTiter-Glo cell viability); format: cell-based, human; settings: AsPC-1, 72 h, first value of the cell, read-out: G12D/C/V Cell Proliferation CTG (72 h) AsPC-1
Summary of the method: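 Human pancreatic AsPC-1 or colon SW620 cells in RPMI 1640 with 10% FBS, seeded overnight, then exposed to serially diluted compound for 72 h at 37 °C. CellTiter-Glo luminescence normalized to DMSO control; IC50 from a 4-parameter logistic model.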

GDP-bound KRAS protein (aa 1-169), containing both G12D and C118A amino acid substitutions, sequence (P01116 other isoform, or with tags, fused parts or gaps G12D/C118A): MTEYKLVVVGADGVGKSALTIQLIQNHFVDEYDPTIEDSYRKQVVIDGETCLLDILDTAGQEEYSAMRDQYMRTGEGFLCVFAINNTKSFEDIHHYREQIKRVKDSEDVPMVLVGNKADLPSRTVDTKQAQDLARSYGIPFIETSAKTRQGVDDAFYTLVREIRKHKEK
His-tagged KRAS G12D protein, sequence (P01116 other isoform, or with tags, fused parts or gaps G12D): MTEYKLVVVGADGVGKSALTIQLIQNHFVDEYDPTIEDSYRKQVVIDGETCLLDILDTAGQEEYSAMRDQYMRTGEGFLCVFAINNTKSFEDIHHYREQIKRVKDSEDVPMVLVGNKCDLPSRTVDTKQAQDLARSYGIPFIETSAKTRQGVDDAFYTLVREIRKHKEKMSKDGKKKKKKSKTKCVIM

SMILES | IC50 ([1]; Homo sapiens, ASPC1, 2 h) [nM] | IC50 [2] [nM] | IC50 [3] [nM] | IC50 (AsPC-1 cells; Homo sapiens, ASPC1, 72 h) [nM] | IC50 ([1]; 2 h) [nM] | IC50 (AsPC-1 cells) [nM]
CN1C(=O)CCCc2c(F)ccc3cccc(c23)-c2ncc3c(nc(OC[C@@]45CCCN4C[C@H](F)C5)nc3c2F)N2CCC[C@]1(C)C2 [Example 167, (15R)-22,31-difluoro-8-(((2R,7aS)-2-fluorotetrahydro-1H-pyrrolo[1,2-a]pyrrol-7a(5H)-yl)methoxy)-15,16-dimethyl-3,7,9,11,16-pentaazahexacyclo[19.7.1.1~2,6~.1~11,15~.0~5,10~.0~25,29~]hentriaconta-1(29),2(31),3,5,7,9,21,23,25,27-decaen-17-one] | 1590 | 20 | 44 | 5000 |  | 
O=C1N[C@H]2CN(C[C@H]3C[C@H]32)c2nc(OC[C@@]34CCCN3C[C@H](F)C4)nc3c(F)c(ncc23)-c2c(c(Cl)cc3[nH]ncc23)CCC[C@@H]1F [Example 175, (23S,26R,27R,29S)-18-chloro-23,32-difluoro-4-(((2R,7aS)-2-fluorotetrahydro-1H-pyrrolo[1,2-a]pyrrol-7a(5H)-yl)methoxy)-1,3,5,9,14,15,25-heptaazaheptacyclo[24.4.1.1~6,10~.0~2,7~.0~11,19~.0~12,16~.0~27,29~]dotriaconta-2,4,6,8,10(32),11,13,16,18-nonaen-24-one] | 27.7 | 4 | 5 | 123 |  | 
O=C1OCCCc2c(Cl)cccc2-c2ncc3c(nc(OC[C@@]45CCCN4C[C@H](F)C5)nc3c2F)N2CCOC[C@H](C2)O1 [Example 186, (23S)-15-chloro-29-fluoro-4-(((2R,7aS)-2-fluorotetrahydro-1H-pyrrolo[1,2-a]pyrrol-7a(5H)-yl)methoxy)-20,22,25-trioxa-1,3,5,9-tetraazapentacyclo[21.4.1.1~6,10~.0~2,7~.0~11,16~]nonacosa-2,4,6,8,10(29),11,13,15-octaen-21-one] |  | 9 | 12 |  | 200 | 1950
Fc1c2ncc3c(nc(OC[C@@]45CCCN4C[C@H](F)C5)nc13)N1CC(COCCCCc3c(Cl)cc4[nH]ncc4c3-2)CC2(CC2)C1 (stereo partly shown) [Example 228] | 181 | 8 | 12 | 487 |  | 
Cc1cc2[nH]ncc2c2c1CCC[C@@H](O)CC[C@@H]1CCCN(C1)c1nc(OC[C@@]34CCCN3C[C@H](F)C4)nc3c(F)c-2ncc13 [Example 237, (14R,17S)-30-Fluoro-24-(((2R,7aS)-2-fluorotetrahydro-1H-pyrrolo[1,2-a]pyrrol-7a(5H)-yl)methoxy)-9-methyl-5,6,21,23,25,29-hexaazahexacyclo[24.3.1.1˜17,21˜.0˜2,10˜.0˜3,7˜.0˜22,27˜]hentriaconta-1(30),2,4,7,9,22,24,26,28-nonaen-14-ol] | 279 | 10 | 19 | 5000 |  | 
Fc1cc2[nH]ncc2c2c1CCCCOC[C@@H]1CCCCN(C1)c1nc(OC[C@@]34CCCN3C[C@H](F)C4)nc3c(F)c-2ncc13 [Example 239, (26R)-18,32-difluoro-4-(((2R,7aS)-2-fluorotetrahydro-1H-pyrrolo[1,2-a]pyrrol-7a(5H)-yl)methoxy)-24-oxa-1,3,5,9,14,15-hexaazahexacyclo[24.4.1.1~6, 10~.0~2,7~.0~11,19~.0~12,16~]dotriaconta-2,4,6(32),7,9,11,13,16,18-nonaene] | 82.9 | 5 | 6 | 527 |  | 
Fc1c2ncc3c(nc(OC[C@@]45CCCN4C[C@H](F)C5)nc13)N1CCC[C@H](C1)c1noc(n1)CCCc1c(Cl)cc3[nH]ncc3c1-2 [Example 247, (18R)-9-chloro-31-fluoro-25-(((2R,7aS)-2-fluorotetrahydro-1H-pyrrolo[1,2-a]pyrrol-7a(5H)-yl)methoxy)-15-oxa-5,6,16,22,24,26,30,33-octaazaheptacyclo[25.3.1.1~14,17~.1~18,22~.0~2,10~.0~3,7~.0~23,28~]tritriaconta-1(31),2,4,7,9,14(33),16,23,25,27,29-undecaene] | 31.2 | 5 | 9 | 446 |  | 
Cc1cc2[nH]ncc2c2c1C[C@@H](C)CCOC[C@@H]1CCCN(C1)c1nc(OC[C@@]34CCCN3C[C@H](F)C4)nc3c(F)c-2ncc13 [Example 250, (12R,17R)-30-fluoro-24-(((2R,7aS)-2-fluorotetrahydro-1H-pyrrolo[1,2-a]pyrrol-7a(5H)-yl)methoxy)-9,12-dimethyl-15-oxa-5,6,21,23,25,29-hexaazahexacyclo[24.3.1.1~17,21~.0~2,10~.0~3,7~.0~22,27~]hentriaconta-1(30),2,4,7,9,22,24,26,28-nonaene] | 128 | 6 | 13 | 1060 |  | 
C[C@@H]1CCOC[C@H]2CN(CCO2)c2nc(OC[C@@]34CCCN3C[C@H](F)C4)nc3c(F)c(ncc23)-c2c(c(Cl)cc3[nH]ncc23)C1 [Example 253, (12S,17R)-9-chloro-30-fluoro-24-(((2R,7aS)-2-fluorotetrahydro-1H-pyrrolo[1,2-a]pyrrol-7a(5H)-yl)methoxy)-12-methyl-15,18-dioxa-5,6,21,23,25,29-hexaazahexacyclo[24.3.1.1~17,21~.0~2,10~.0~3,7~.0~22,27~]hentriaconta-1(30),2,4,7,9,22,24,26,28-nonaene] | 67.8 | 6 | 9 | 1200 |  | 

Results, then the molecule that gave them:

IC50 ([1]; Homo sapiens, ASPC1, 2 h) [nM] | IC50 [2] [nM] | IC50 [3] [nM] | IC50 (AsPC-1 cells; Homo sapiens, ASPC1, 72 h) [nM] | IC50 ([1]; 2 h) [nM] | IC50 (AsPC-1 cells) [nM] | SMILES
114 | 3 | 6 | 910 |  |  | Fc1c2ncc3c(nc(OC[C@@]45CCCN4C[C@H](F)C5)nc13)N1CCC[C@@H](CCOCCCc3c(Cl)cc4[nH]ncc4c3-2)C1 [Example 139]
4670 | 63 | 68 | 5000 |  |  | O=S1(=O)CCCCc2c(Cl)cc3[nH]ncc3c2-c2ncc3c(nc(OC[C@@]45CCCN4C[C@H](F)C5)nc3c2F)N2CCC[C@H](C2)C1 [Example 145]
106 | 4 | 6 | 1090 |  |  | Cc1cc2[nH]ncc2c2c1CCCCC(=O)N[C@H]1CN(C[C@H]3C[C@H]31)c1nc(OC[C@@]34CCCN3C[C@H](F)C4)nc3c(F)c-2ncc13 [Example 171, (26R,27R,29S)-32-fluoro-4-(((2R,7aS)-2-fluorotetrahydro-1H-pyrrolo[1,2-a]pyrrol-7a(5H)-yl)methoxy)-18-methyl-1,3,5,9,14,15,25-heptaazaheptacyclo[24.4.1.1~6,10~.0~2,7~.0~11,19~.0~12,16~.0~27,29~]dotriaconta-2,4,6,8,10(32),11,13,16,18-nonaen-24-one]
23.9 | 24 | 49 | 60 |  |  | Cc1cc2[nH]ncc2c2c1CCOC(=O)O[C@H]1C[C@]3(CCCN(C3)c3nc(OC[C@@]45CCCN4C[C@H](F)C5)nc4c(F)c-2ncc34)C1 [Example 193, (1R,3S)-32-fluoro-24-(((2R,7aS)-2-fluorotetrahydro-1H-pyrrolo[1,2-a]pyrrol-7a(5H)-yl)methoxy)-10-methyl-4,6-dioxa-13,14,19,23,25,27-hexaazaheptacyclo[25.3.1.1~1,3~.1~18,22~.0~9,17~.0~12,16~.0~21,26~]tritriaconta-9,11,14,16,18(32),19,21,23,25-nonaen-5-one]
211 | 9 | 14 | 2230 |  |  | Cc1cc2[nH]ncc2c2c1CCCOC(=O)O[C@@H]1CCCCN(C1)c1nc(OC[C@@H]3CCCN3C)nc3c(F)c-2ncc13 [Example 206, (26R)-32-fluoro-18-methyl-4-(((2S)-1-methyl-2-pyrrolidinyl)methoxy)-23,25-dioxa-1,3,5,9,14,15-hexaazahexacyclo[24.4.1.1~6,10~.0~2,7~.0~11,19~.0~12,16~]dotriaconta-2,4,6,8,10(32),11,13,16,18-nonaen-24-one]
4.9 | 15 | 46 | 5 |  |  | CC(=O)n1ncc2c3c(c(Cl)cc21)CCCOC(=O)O[C@@H]1COCCN(C1)c1nc(OC[C@@]24CCCN2C[C@H](F)C4)nc2c(F)c-3ncc12 [Example 213, (26S)-15-Acetyl-18-chloro-32-fluoro-4-(((2R,7aS)-2-fluorotetrahydro-1H-pyrrolo[1,2-a]pyrrol-7a(5H)-yl)methoxy)-23,25,28-trioxa-1,3,5,9,14,15-hexaazahexacyclo[24.4.1.1˜6,10˜.0˜2,7˜.0˜11,19˜.0˜12,16˜]dotriaconta-2,4,6(32),7,9,11,13,16,18-nonaen-24-one]
861 | 24 | 45 | 5000 |  |  | Cc1cc2[nH]ncc2c2c1CCC[C@H](O)CC[C@H]1CCCN(C1)c1nc(OC[C@@]34CCCN3C[C@H](F)C4)nc3c(F)c-2ncc13 [Example 238, (14S,17R)-30-fluoro-24-(((2R,7aS)-2-fluorotetrahydro-1H-pyrrolo[1,2-a]pyrrol-7a(5H)-yl)methoxy)-9-methyl-5,6,21,23,25,29-hexaazahexacyclo[24.3.1.1˜17,21˜.0˜2,10˜.0˜3,7˜.0˜22,27˜]hentriaconta-1(30),2,4,7,9,22,24,26,28-nonaen-14-ol]

From patent publication US20240294551A1 (AMGEN INC., priority 2022, published 2024)
